The record followed here is patent publication US20260224716A1, “PTH ANALOGS FOR THE TREATMENT OF HYPOPARATHYROIDISM” (priority 2020, published 2026).

*1 amine or outer side, *2 acyl side, *3 side chain or, on linkers, in order; H or OH if unused. Where a SMILES comes first, the peptide text is derived from it. Side-chain parts run from the residue outwards. [ ]: non-standard residue; d: D form. The star is where a group is joined. C18 diacid = O=C(O)CCCCCCCCCCCCCCCCC(=O)*; γGlu = O=C(O)[C@H](CCC(=O)[*:2])N[*:1]; AEEA = NCCOCCOCC(=O)O; Sar = CNCC(=O)O A value given as a limit tells only on which side of the number the result lay.

Data set [1] can be described thus: Rate of model dipeptide cleavage from hexapeptide in PBS (HPLC, LC-MS). The data set is classed as physicochemical. Particulars: buffer. As for the experimental part:
The solution was incubated at 37° C.
The flow rate was 1 ml/min.

The nature of data set [2]: Pharmacokinetics of A8 PTH prodrugs in monkeys, single subcutaneous dose (Example 8). It counts as in vivo, cynomolgus monkeys. Particulars: single SC dose 25 nmol/kg, FIGS. 7A, 7B. As for the experimental part: The pharmacokinetic profile of PTH analogues following a single subcutaneous dose to cynomolgus monkeys and an evaluation of the pharmacodynamic response of serum calcium and phosphorus was investigated. A total of six monkey were used in this test 2 males and 4 females ranging in age from 2-4 years old at beginning of the study and having a weight of at least 2.5 kg.
Animals were assigned to groups as noted in the Table 6 below. Animals were dosed by subcutaneous injection. Dose administration was staggered. The Group 1
male was dosed once, and the remaining two Group 1 females and all Group 2 animals were dosed once, approximately four days later. First day of dosing was designated as Study Day (SD) 1 for each animal. The dose volume was 0.3 mL/kg. Individual dose volumes were calculated based on the animals' most recently recorded body weight. […]
Pharmacokinetic mean concentration-time data was analyzed using non-compartmental methods (Phoenix® WinNonlin® Version 7.0 or higher) based on the route of administration. The following parameters were calculated whenever possible and as data allows: Cmax, Tmax, and AUC. […]
Results from these pharmacokinetic (PK) studies are provided in FIGS. 7A and 7B wherein the concentration of the administered prodrug form and its activate drug form (produced after in vivo non-enzymatic cleavage of the dipeptide prodrug element) were measured over time.

A further data set has as its system serum phosphate. Kind of data set: Pharmacology in normal rats: serum phosphate (Example 5). It counts as in vivo, Sprague Dawley rats. Particulars: FIG. 5B; 20, 40, 80 nmol/kg SC, dose-responsive over 72 hours. As for the experimental part: (§1) Each group of rats was bled immediately before the injection and after 6, 24, 48 and 72 hours. Blood was spun and serum was collected and stored at −20° C. Calcium and phosphorous concentrations were determined used commercially available assays following the manufacturer's instructions.

In data set [3] the test system is serum calcium. In words: Pharmacology in normal mice: serum calcium (Example 6). Particulars: FIG. 5C, 20 or 40 nmol/kg SC, 24 and 48 hours. It counts as in vivo, C57Bl6/J mice. The procedure: Each group of mice was bled immediately before the injection and after 24 and 48 hours. Blood was centrifuges and serum was collected and stored at −20 C. Calcium concentrations were determined used commercially available assays following the manufacturer's instructions.

The subject of data set [4] is serum calcium. Kind of data set: Pharmacology in normal rats: serum calcium (Example 5). The data set is classed as in vivo, Sprague Dawley rats. Particulars: FIG. 5A; 20, 40, 80 nmol/kg SC, dose-responsive over 72 hours. The procedure:
as §1

As to `CC[C@H](C)[C@H](NC(=O)[C@H](CCC(=O)O)NC(=O)[C@H](CO)NC(=O)[C@@H](NC(=O)[C@H](CO)NC(=O)CN(C)C(=O)[C@H](N)CCCCNC(=O)CC[C@H](NC(=O)COCCOCCNC(=O)COCCOCCNC(=O)CC[C@H](NC(=O)CCCCCCCCCCCCCCCCC(=O)O)C(=O)O)C(=O)O)C(C)C)C(=O)N[C@@H](CCC(N)=O)C(=O)N[C@@H](CC(C)C)C(=O)N[C@@H](C)C(=O)N[C@@H](Cc1c[nH]cn1)C(=O)N[C@@H](CC(N)=O)C(=O)N[C@@H](CC(C)C)C(=O)NCC(=O)N[C@@H](CCCCN)C(=O)N[C@@H](Cc1c[nH]cn1)C(=O)N[C@@H](CC(C)C)C(=O)N[C@@H](CC(N)=O)C(=O)N[C@@H](CO)C(=O)N[C@@H](CCSC)C(=O)N[C@@H](CCC(=O)O)C(=O)N[C@@H](CCCNC(=N)N)C(=O)N[C@H](C(=O)N[C@@H](CCC(=O)O)C(=O)N[C@@H](Cc1c[nH]c2ccccc12)C(=O)N[C@@H](CC(C)C)C(=O)N[C@@H](CCCNC(=N)N)C(=O)N[C@@H](CCCCN)C(=O)N[C@@H](CCCCN)C(=O)N[C@@H](CC(C)C)C(=O)N[C@@H](CCC(N)=O)C(=O)N[C@@H](CC(=O)O)C(=O)N[C@H](C(=O)N[C@@H](Cc1c[nH]cn1)C(=O)N[C@@H](CCCCNC(=O)CC[C@H](NC(=O)COCCOCCNC(=O)COCCOCCNC(=O)CC[C@H](NC(=O)CCCCCCCCCCCCCCCCC(=O)O)C(=O)O)C(=O)O)C(=O)O)C(C)C)C(C)C` [SEQ ID NO: 95] (H-[dK]([γGlu-AEEA-AEEA-γGlu-C18 diacid])[Sar]SVSEIQLAHNLGKHLNSMERVEWLRKKLQDVHK([γGlu-AEEA-AEEA-γGlu-C18 diacid])-OH), the half-life at 1 mg/ml in data set [1] was > 20.8 days. Further, in data set [2], the “plasma concentration versus singly fatty acylated prodrug SEQ ID: 94” value is on record as “higher concentration that is sustained for a longer period”.

As for “SVSEIQLMHNLGKHLNSMERVEWLRKKLQDVHK(γE-COC16H32CO2H)F-OH (SVSEIQLMHNLGKHLNSMERVEWLRKKLQDVHXF; K33 γE-diacidC18 acylation; C-terminal acid; SITE 33 MISC_FEATURE - Xaa at position 33 is Lys wherein the side chain is acylated with COC16H32CO2H via a gamma Glu spacer; listed as Homo sapiens) [SEQ ID NO: 102, PTH(1-34), K33(γE-diacidC18)]”, the “effect on serum phosphate” value in the data set on serum phosphate is given as “reduce serum phosphate”. Moreover, the “effect on serum calcium levels” value in the data set with serum calcium [3] and in the data set with serum calcium [4] was “increase serum calcium levels” each time.

As a reminder, the half-life is the time in which the quantity being followed falls by half.
